In paper PMC11844072, “Novel 5,6-dichlorobenzimidazole derivatives as dual BRAFWT and BRAFV600E inhibitors: design, synthesis, anti-cancer activity and molecular dynamics simulations” (BMC Chemistry, 2025):

Legend:
[1] = biological target: T1, BRAFWT (Homo sapiens, UniProt P15056); assay: BRAFWT kinase assay kit (Kinase-Glo Max luminescence); format: biochemical; details: mean of two independent experiments ± SD; for inhibition at 10 µM: BRAFwt
T1 construct: purchased BPS Biosciences 78316
Description: The inhibitory activities of 10a–p on BRAFWT was examined utilizing BRAFWT assay kit (BPS Biosciences—San Diego—CA—US) (For further information see Additional file A).
4. Biochemical kinase assays
The inhibitory activity against different kinases was determined using kinase kits (BRAF WT […]
Glo Max luminescence kinase assay kit (Promega).
The assay was carried out according to the protocol provided by the manufacturer. A stock solution of the synthesized derivatives in 100% DMSO was prepared. Subsequently, the compounds were diluted to 10% DMSO.
A master mixture was prepared according to the number of wells. For BRAF assay each well include 6 μl of 5x Kinase Buffer 1 + 1 μl of ATP (500 μM) + 10 μl of 5X Raf substrate + 8 μl of distilled water. 1x Kinase buffer 1 was prepared by mixing 600 μl of 5x Kinase Buffer 1 with 2400 μl water to give 3 mL. Kinases were thawed on ice and were diluted with 1x Kinase Buffer 1.
To start the biochemical reaction, 25 µL of the master mixture was added to each well in 96 well plate. 5 µL of 10% DMSO was added to positive control wells and blank wells. 5 µL of diluted inhibitor was added to each well labelled with the test inhibitor so that the final concentration of DMSO is 1% in all reactions. Then 20 µL of (2.5 ng/μl) in case of BRAF WT and (1 ng / μl) in case of VEGFR-2 and FGFR-1 in 1x kinase buffer was added to positive control wells and wells labelled with the inhibitor, while 20 µL 1x kinase buffer 1 was added to the blank wells.
The plate was incubated at 30 °C for 45 min. Subsequently, 50 μl of Kinase-Glo Max luminescence reagent was added to each well and the plate was covered with aluminum foil and incubated at room temperature for 15 min. Finally, the luminescence was recorded using multimode microplate reader. Kinase activity assays were performed in duplicate at each concentration.
The luminescence data were analyzed as follows. The difference between luminescence intensities in the absence of kinase (Lu t) and in the presence of kinase (Lu c) was defined as 100 % […]
calculated as: % activity = {(Lu t - Lu)/(Lut - Luc)} ×100%. The concentration of the test compounds required to reduce the kinase activity by 50% was determined from dose-response curves and […]

[2] = tested on: SNB-19; assay: NCI 60 single concentration growth inhibition; format: cell-based, human; details: Homo sapiens, SNB-19, CNS cancer, read-out: GI%
Description: (§1) The synthesized dichlorobenzimidazoles 10a–p were assayed for their influence on divers cancer cell lines according to the method presented in the Additional file A.
(§2) 5. Screening of cytotoxic activity against a panel of sixty human tumor cell lines
(§3) The selected compounds by NCI were evaluated for their anticancer activity in a two-stage process. First, these compounds were screened against the full NCI 60 cell lines panel at a single high dose of 10 µM. Then, the output from the single dose screen is reported as a mean graph. […]
(§4) Assay protocol. The human tumor cell lines of the cancer screening panel are grown in RPMI 1640 medium containing 5% fetal bovine serum and 2 mM L-glutamine. For a typical screening experiment, cells are inoculated into 96 well microtiter plates in 100 µL at plating densities ranging from 5000 to 40,000 cells/well depending on the doubling time of individual cell lines. After cell inoculation, the microtiter plates are incubated at 37 °C, 5% CO 2, 95% air and 100% relative humidity for 24 h prior to addition of the experimental drugs.
(§5) After 24 h, two plates of each cell line are fixed in situ with TCA, to represent a measurement of the cell population for each cell line at the time of drug addition (Tz). The experimental drugs are solubilized in dimethyl sulfoxide at 400-fold the desired final maximum test concentration and stored frozen prior to use. At the time of drug addition, an aliquot of frozen concentrate is thawed and diluted to twice the desired final maximum test concentration with complete medium containing 50 µg/mL gentamicin. Additional four, 10-fold or ½ log serial dilutions are made to provide a total of five drug concentrations plus control.
(§6) Aliquots of […] of these different drug dilutions are added to the appropriate microtiter wells already containing […] of medium, resulting in the required final drug concentrations.
(§7) Following drug addition, the plates are incubated for an additional 48 h at 37 °C, 5% CO 2, 95% air, and 100% relative humidity. For adherent cells, the assay is terminated by the addition of cold TCA.
(§8) Cells are fixed in situ by the gentle addition of 50 µL of cold 50% (w/v) TCA (final concentration, 10% TCA) and incubated for 60 min at 4 °C. The supernatant is discarded, and the plates are washed five times with tap water and air dried. Sulforhodamine B (SRB) solution ([…]) at 0.4% (w/v) in 1% acetic acid is added to each well, and plates are incubated for 10 min at room temperature. After staining, unbound dye is removed by washing five times with 1% acetic acid and the plates are air dried. Bound stain is subsequently solubilized with 10 mM trizma base, and the absorbance is read on an automated plate reader at a wavelength of 515 nm. For suspension cells, the methodology is […]
(§9) the same except that the assay is terminated by fixing settled cells at the bottom of the wells by gently adding 50 µl of 80% TCA (final concentration, 16% TCA). Using the seven absorbance measurements [time zero, (Tz), control growth, (C), and test growth in the presence of drug at the five concentration levels (Ti)], the percentage growth is calculated at each of the drug concentrations […]
(§10) Percentage growth inhibition is calculated as: [(Ti Tz)/(C–Tz)] x 100 for concentrations for which Ti>/=Tz and [(Ti-Tz)/Tz] x 100 for concentrations for which Ti < Tz. […]
(§11) Results for each compound were reported as a mean graph of the percent growth of the treated cells when compared to the untreated control cells. There after obtaining the results for one dose assay, analysis of historical Development Therapeutics Programme (DTP) was performed and compounds which satisfies predetermined threshold inhibition criteria is selected for NCI full panel 5 dose assay.

[3] = tested on: K-562; assay: NCI 60 single concentration growth inhibition; format: cell-based, human; details: Homo sapiens, K562, K-562, Leukemia, read-out: GI%
Description: as §1, §2, §3, §4, §5, §6, §7, §8, §9, §10, §11

[4] = tested on: HOP-92; assay: NCI 60 single concentration growth inhibition; format: cell-based, human; details: Homo sapiens, HOP-92, Non-small cell lung cancer, read-out: GI%
Description: as §1, §2, §3, §4, §5, §6, §7, §8, §9, §10, §11

[5] = tested on: SW-620; assay: NCI 60 single concentration growth inhibition; format: cell-based, human; details: Homo sapiens, SW-620, Colon cancer, read-out: GI%
Description: as §1, §2, §3, §4, §5, §6, §7, §8, §9, §10, §11

[6] = tested on: NCI-H522; assay: NCI 60 single concentration growth inhibition; format: cell-based, human; details: Homo sapiens, NCI-H522, Non-small cell lung cancer, read-out: GI%
Description: as §1, §2, §3, §4, §5, §6, §7, §8, §9, §10, §11

[7] = tested on: TK-10; assay: NCI 60 single concentration growth inhibition; format: cell-based, human; details: Homo sapiens, TK-10, Renal cancer, read-out: GI%
Description: as §1, §2, §3, §4, §5, §6, §7, §8, §9, §10, §11

[8] = tested on: HCT-15; assay: NCI 60 single concentration growth inhibition; format: cell-based, human; details: Homo sapiens, HCT-15, Colon cancer, read-out: GI%
Description: as §1, §2, §3, §4, §5, §6, §7, §8, §9, §10, §11

[9] = tested on: NCI/ADR-RES; assay: NCI 60 single concentration growth inhibition; format: cell-based, human; details: Homo sapiens, Ovarian cancer, read-out: GI%
Description: as §1, §2, §3, §4, §5, §6, §7, §8, §9, §10, §11

[10] = tested on: LOX IMVIL; assay: NCI 60 single concentration growth inhibition; format: cell-based, human; details: Homo sapiens, Melanoma, read-out: GI%
Description: as §1, §2, §3, §4, §5, §6, §7, §8, §9, §10, §11

T1 sequence (P15056 whole entry): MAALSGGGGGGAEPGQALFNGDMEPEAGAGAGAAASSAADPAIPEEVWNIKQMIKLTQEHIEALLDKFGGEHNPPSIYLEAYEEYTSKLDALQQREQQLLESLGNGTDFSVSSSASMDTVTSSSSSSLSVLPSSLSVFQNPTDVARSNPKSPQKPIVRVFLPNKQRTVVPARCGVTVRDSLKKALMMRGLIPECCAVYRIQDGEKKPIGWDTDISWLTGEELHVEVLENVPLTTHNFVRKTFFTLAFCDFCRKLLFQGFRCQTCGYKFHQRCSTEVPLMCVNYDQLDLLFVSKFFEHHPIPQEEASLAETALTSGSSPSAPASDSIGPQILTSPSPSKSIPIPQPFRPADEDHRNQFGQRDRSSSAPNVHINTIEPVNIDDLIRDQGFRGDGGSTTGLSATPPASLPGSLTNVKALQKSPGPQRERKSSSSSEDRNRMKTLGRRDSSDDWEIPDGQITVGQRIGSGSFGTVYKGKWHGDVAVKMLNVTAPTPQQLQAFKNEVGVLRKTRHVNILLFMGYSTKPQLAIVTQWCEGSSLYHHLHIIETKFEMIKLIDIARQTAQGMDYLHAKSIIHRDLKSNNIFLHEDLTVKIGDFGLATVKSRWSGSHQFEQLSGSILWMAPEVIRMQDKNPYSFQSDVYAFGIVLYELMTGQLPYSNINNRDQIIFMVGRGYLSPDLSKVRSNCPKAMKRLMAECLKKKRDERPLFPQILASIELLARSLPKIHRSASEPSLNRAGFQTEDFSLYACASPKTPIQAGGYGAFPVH

SMILES	inhibition at 10 µM [1] [%]	inhibition at 10 µM [2] [%]	inhibition at 10 µM [3] [%]	inhibition at 10 µM [4] [%]	inhibition at 10 µM [5] [%]	inhibition at 10 µM [6] [%]	inhibition at 10 µM [7] [%]	inhibition at 10 µM [8] [%]	inhibition at 10 µM [9] [%]	inhibition at 10 µM [10] [%]	IC50 [1] [µM]
COC(=O)COc1cccc(C=NNC(=O)Cn2c(-c3ccc(OC)cc3)nc3cc(Cl)c(Cl)cc32)c1 [Compound 10g, Methyl-2-(3-((2-(2-(5,6-dichloro-2-(4-methoxyphenyl)-1H-benzo[d]imidazol-1-yl)acetyl)hydrazono)methyl)phenoxy)acetate]	39.9 ± 2.49	< 5	21.3	5.5	< 5	9.11	< 5	21.4	< 5	19.1	
COC(=O)COc1ccc(C=NNC(=O)Cn2c(-c3ccc(OC)cc3)nc3cc(Cl)c(Cl)cc32)cc1 [Compound 10h, Methyl-2-(4-((2-(2-(5,6-dichloro-2-(4-methoxyphenyl)-1H-benzo[d]imidazol-1-yl)acetyl)hydrazono)methyl)phenoxy)acetate]	91.2 ± 6.5	8.19	31.4	7.02	< 5	7.31	< 5	40.3	< 5	39.5	1.72 ± 0.09
CCOC(=O)C(C)Oc1ccc(C=NNC(=O)Cn2c(-c3ccc(OC)cc3)nc3cc(Cl)c(Cl)cc32)cc1 (centres unmarked) [Compound 10j, Ethyl-2-(4-((2-(2-(5,6-dichloro-2-(4-methoxyphenyl)-1H-benzo[d]imidazol-1-yl)acetyl) hydrazono)methyl)phenoxy)propanoate]	70.2 ± 6.16	11.2	41.3	15.2	< 5	32.6	< 5	37.1	< 5	18.4	
COc1ccc(-c2nc3cc(Cl)c(Cl)cc3n2CC(=O)NN=Cc2ccc(OC)c(O)c2)cc1 [Compound 10k, 2-(5,6-Dichloro-2-(4-methoxyphenyl)-1H-benzo[d]imidazol-1-yl)-N'-(3-hydroxy-4-methoxybenzylidene)acetohydrazide]	47.6 ± 3.8	40.3	59.9	12	6.39	37.8	28	47.2	40.1	38.4	
COc1ccc(-c2nc3cc(Cl)c(Cl)cc3n2CC(=O)NN=Cc2ccc(O)c(OC)c2)cc1 [Compound 10l, 2-(5,6-Dichloro-2-(4-methoxyphenyl)-1H-benzo[d]imidazol-1-yl)-N'-(4-hydroxy-3-methoxybenzylidene)acetohydrazide]	52.3 ± 4.92	37.3	58.1	40.1	9.29	23.5	16.2	51.5	38.4	38.5	
COC(=O)COc1cc(C=NNC(=O)Cn2c(-c3ccc(OC)cc3)nc3cc(Cl)c(Cl)cc32)ccc1OC [Compound 10o, Methyl-2-(5-((2-(2-(5,6-dichloro-2-(4-methoxyphenyl)-1H-benzo[d]imidazol-1-yl)acetyl)hydrazono)methyl)-2-methoxyphenoxy)acetate]	34.3 ± 3.31	< 5	23.6	29.1	< 5	32.7	< 5	23.6	11.1	36.4	
COC(=O)COc1ccc(C=NNC(=O)Cn2c(-c3ccc(OC)cc3)nc3cc(Cl)c(Cl)cc32)cc1OC [Compound 10p, Methyl-2-(4-((2-(2-(5,6-dichloro-2-(4-methoxyphenyl)-1H-benzo[d]imidazol-1-yl)acetyl)hydrazono)methyl)-2-methoxyphenoxy)acetate]	90.5 ± 8.9	< 5	12.3	< 5	< 5	6.3	58	21.5	5.42	25.2	
